Test results reported in patent publication US9981963B2, “3-(1H-pyrazol-4-yl)-1H-pyrrolo[2,3-c]pyridine derivatives as NIK inhibitors” (Janssen Pharmaceutica NV, priority 2013, dated 2018).

Columns and labels:
[1] = target: T1, Recombinant Human NF-kappaB-inducing Kinase (NIK/MAP3K14) (Homo sapiens (Human), UniProt Q99558); experiment: Biological Assay A2: inhibition of auto-phosphorylation of recombinant human NIK/MAP3K14 (AlphaScreen); type: biochemical; details: 25 microM ATP, 0.2 nM GST-tagged NIK/MAP3K14, 1 h at 25° C., averaged values, read-out: Alpha-Screen IC50
Procedure: Inhibition of Auto-phosphorylation of Recombinant Human NF-kappaB-inducing Kinase (NIK/MAP3K14) Activity (AlphaScreen®)
NIK/MAP3K14 auto-phosphorylation activity was measured using the AlphaScreen® (αscreen) format (Perkin Elmer). All compounds tested were dissolved in dimethyl sulfoxide (DMSO) and further dilutions were made in assay buffer. Final DMSO concentration was 1% (v/v) in assays. Assay buffer was 50 mM Tris pH 7.5 containing 1 mM EGTA (ethylene glycol tetraacetic acid), 1 mM DTT (dithiothreitol), 0.1 mM Na3VO4, 5 mM MgCl2, 0.01% Tween® 20. Assays were carried out in 384 well Alphaplates (Perkin Elmer). Incubations consisted of compound, 25 microM Adenosine-5′-triphosphate (ATP), and 0.2 nM NIK/MAP3K14. Incubations were initiated by addition of GST-tagged NIK/MAP3K14 enzyme, carried out for 1 h at 25° C. and terminated by addition of stop buffer containing anti-phospho-IKK Ser176/180 antibody. Protein A Acceptor and Glutathione-Donor beads were added before reading using an EnVision® Multilabel Plate Reader (Perkin Elmer). Signal obtained in the wells containing blank samples was subtracted from all other wells and IC50's were determined by fitting a sigmoidal curve to % inhibition of control versus Log10 compound concentration.

[2] = system: P-IKKα levels in L363 cells; experiment: Biological Assay B: effect of compounds on P-IKKα levels in L363 cells; type: cell-based; details: Homo sapiens, L-363; L363 cells with BAFF, 2 hr treatment; averaged values; read-out: IKKα Cellular IC50
Procedure: Effect of Compounds on P-IKKα Levels in L363 Cells
All compounds tested were dissolved in DMSO and further dilutions were made in culture medium. Final DMSO concentration was 1% (v/v) in cell assays. The human L363 cells (ATCC) were cultured in RPMI 1640 medium supplemented with GlutaMax and 10% fetal calf serum (PAA). Cells were routinely maintained at densities of 0.2×10^6 cells per ml-1×10^6 cells per ml at 37° C. in a humidified 5% CO2 atmosphere. Cells were passaged twice a week splitting back to obtain the low density. Cells were seeded in 96 well plates (Nunc 167008) at 2×10^6 per ml media in a volume of 75 μl per well plus 25 μl 1 μg/ml recombinant human B-cell activating factor (BAFF/BLyS/TNFSF13B). Seeded cells were incubated at 37° C. in a humidified 5% CO2 atmosphere for 24 hr. Drugs and/or solvents were added (20 μl) to a final volume of 120 μl. Following 2 hr treatment plates were removed from the incubator and cell lysis was achieved by the addition of 30 μl 5× lysis buffer followed by shaking on a plate shaker at 4° C. for 10 min. At the end of this incubation lysed cells were centrifuged at 800×g for 20 min at 4° C. and the lysate was assessed for P-IKKα levels by sandwich immuno-assay carried out in anti-rabbit antibody coated Mesoscale plates. Within an experiment, the results for each treatment were the mean of 2 replicate wells. For initial screening purposes, compounds were tested using an 8 point dilution curve (serial 1:3 dilutions). For each experiment, controls (containing MG132 and BAFF but no test drug) and a blank incubation (containing MG132 and BAFF and 10 μM ADS125117, a test concentration known to give full inhibition) were run in parallel. The blank incubation value was subtracted from all control and sample values. To determine the IC50 a sigmoidal curve was fitted to the plot of % inhibition of control P-IKKα levels versus Log10 compound concentration.

LP-1 cells = experiment: Biological Assay C: antiproliferative activity on LP-1 cells (CellTiter-Glo); type: cell-based; details: Homo sapiens, 72 hr of treatment, averaged values
Procedure: (§1) Determination of Antiproliferative Activity on LP-1, L-363 and JJN-3 Cells
(§2) All compounds tested were dissolved in DMSO and further dilutions were made in culture medium. Final DMSO concentration was 0.3% (v/v) in cell proliferation assays. Viability was assessed using CellTiter-Glo cell viability assay kit (Promega). The human LP-1, L-363 and JJN-3 cells (DSMZ) were cultured in RPMI 1640 medium supplemented with 2 mM L-glutamine, and 10% fetal calf serum (PAA). Cells were routinely kept as suspension cells at 37° C. in a humidified 5% CO2 atmosphere. Cells were passaged at a seeding density of 0.2×10^6/ml twice a week. Cells were seeded in black tissue culture treated 96-well plates (Perkin Elmer). Densities used for plating ranged from 2,000 to 6,000 cells per well in a total volume of 75 μl medium. After twenty four hours, drugs and/or solvents were added (25 μl) to a final volume of 100 μl. Following 72 hr of treatment plates were removed from the incubator and allowed to equilibrate to room temperature for approx 10 min. 100 μl CellTiter-Glo reagent was added to each well that was then covered (Perkin Elmer Topseal) and shaken on plate shaker for 10 min. Luminescence was measured on a HTS Topcount (Perkin Elmer). Within an experiment, the results for each treatment were the mean of 2 replicate wells. For initial screening purposes, compounds were tested using a 9 point dilution curve (serial 1:3 dilutions). For each experiment, controls (containing no drug) and a blank incubation (containing cells read at the time of compound addition) were run in parallel. The blank value was subtracted from all control and sample values. For each sample, the mean value for cell growth (in relative light units) was expressed as a percentage of the mean value for cell growth of the control.

L-363 cells = experiment: Biological Assay C: antiproliferative activity on L-363 cells (CellTiter-Glo); type: cell-based; details: Homo sapiens, 72 hr of treatment, averaged values
Procedure: as §1, §2

JJN-3 cells = experiment: Biological Assay C: antiproliferative activity on JJN-3 cells (CellTiter-Glo); type: cell-based; details: Homo sapiens, 72 hr of treatment, averaged values
Procedure: as §1, §2

[3] = target: T1, Recombinant Human NF-kappaB-inducing Kinase (NIK/MAP3K14); experiment: Biological Assay A: inhibition of recombinant human NIK/MAP3K14 activity (MSD, MBP substrate); details: 25 μM ATP, 10 nM NIK/MAP3K14, 1 h at 25° C.; averaged over all measurements on all batches; read-out: Biochemical (MSD MBP) IC50
Procedure: Inhibition of Recombinant Human NF-kappaB-inducing Kinase (NIK/MAP3K14) Activity
Assay buffer was 50 mM Tris pH 7.5 containing 1 mM EGTA (ethylene glycol tetraacetic acid), 1 mM DTT (dithiothreitol), 0.1 mM Na3VO4, 5 mM MgCl2, 0.01% Tween® 20. Assays were carried out in 384 well Mesoscale high binding plates which had been coated with myelin basic protein (MBP) and blocked with bovine serum albumin to prevent non-specific protein binding. All compounds tested were dissolved in dimethyl sulfoxide (DMSO) and further dilutions were made in assay buffer. Final DMSO concentration was 1% (v/v) in assays. Incubations consisted of compound (1% DMSO in control and blank wells), 25 μM Adenosine-5′-triphosphate (ATP), and 10 nM NIK/MAP3K14 substituting enzyme with buffer in the blank wells. Incubations were carried out for 1 h at 25° C. and were followed by washing and sequential incubation with rabbit anti-phospho-MBP and anti-rabbit Ig Sulfotag antibody before reading bound Sulfotag on a Mesoscale Discovery. Signal obtained in the wells containing blank samples was subtracted from all other wells and IC50's were determined by fitting a sigmoidal curve to % inhibition of control versus Log10 compound concentration.

T1 sequence (Q99558 whole entry): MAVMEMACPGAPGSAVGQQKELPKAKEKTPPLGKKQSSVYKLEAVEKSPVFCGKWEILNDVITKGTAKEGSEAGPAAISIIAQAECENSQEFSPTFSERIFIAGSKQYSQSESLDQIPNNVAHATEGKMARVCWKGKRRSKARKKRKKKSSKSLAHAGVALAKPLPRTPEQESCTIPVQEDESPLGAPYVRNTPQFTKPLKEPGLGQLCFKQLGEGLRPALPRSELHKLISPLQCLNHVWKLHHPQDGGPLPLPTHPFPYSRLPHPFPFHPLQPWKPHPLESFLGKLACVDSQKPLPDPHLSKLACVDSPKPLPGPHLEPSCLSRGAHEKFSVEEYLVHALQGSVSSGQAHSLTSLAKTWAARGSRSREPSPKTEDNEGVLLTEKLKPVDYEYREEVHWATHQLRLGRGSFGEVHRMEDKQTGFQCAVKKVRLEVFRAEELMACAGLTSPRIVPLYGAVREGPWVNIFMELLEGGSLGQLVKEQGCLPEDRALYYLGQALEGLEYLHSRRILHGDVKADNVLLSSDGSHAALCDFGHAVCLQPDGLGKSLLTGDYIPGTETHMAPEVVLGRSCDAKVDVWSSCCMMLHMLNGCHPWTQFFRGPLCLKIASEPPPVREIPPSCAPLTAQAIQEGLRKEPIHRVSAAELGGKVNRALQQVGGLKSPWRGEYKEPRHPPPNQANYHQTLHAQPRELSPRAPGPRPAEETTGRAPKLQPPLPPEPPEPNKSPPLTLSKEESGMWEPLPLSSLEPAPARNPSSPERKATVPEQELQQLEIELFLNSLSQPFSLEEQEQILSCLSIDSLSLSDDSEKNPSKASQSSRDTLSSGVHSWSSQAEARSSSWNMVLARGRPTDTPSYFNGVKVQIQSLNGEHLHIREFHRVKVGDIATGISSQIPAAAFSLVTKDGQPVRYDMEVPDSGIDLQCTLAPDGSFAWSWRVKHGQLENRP

## CC(C)(O)C#Cc1cc2c(-c3cn[nH]c3)cn(CC(F)(F)F)c2cn1 [Compound 28]
[1]
  IC50: 43 nM
[2]
  IC50: 338 nM
LP-1 cells
  EC50: 7.38 µM
L-363 cells
  EC50: 1020 nM
JJN-3 cells
  EC50: 1530 nM

## CCn1cc(-c2cn[nH]c2)c2cc(C#CC(C)(O)c3cc(C)on3)ncc21 (stereo not shown) [Compound 48]
[1]
  IC50: 14 nM
LP-1 cells
  EC50: 6.09 µM
L-363 cells
  EC50: 350 nM
JJN-3 cells
  EC50: 621 nM

## [2H]c1n[nH]c([2H])c1-c1cn(CC)c2cnc(C#CC(C)(C)O)cc12 [Compound 40]
[1]
  IC50: 38 nM
LP-1 cells
  EC50: 1.95 µM
L-363 cells
  EC50: 260 nM
JJN-3 cells
  EC50: 547 nM

## [2H]C([2H])([2H])C(O)(C#Cc1cc2c(-c3c[nH]nc3Cl)cn(C3CCN(C)CC3)c2c(C)n1)C([2H])([2H])[2H] [Compound 45]
[1]
  IC50: 111 nM
LP-1 cells
  EC50: 1.45 µM
L-363 cells
  EC50: 277 nM
JJN-3 cells
  EC50: 415 nM

## CC(C)(O)C#Cc1cc2c(-c3cn[nH]c3)cn(C3CCC(CO)CC3)c2cn1 (stereo not shown) [Compound 29]
[1]
  IC50: 4 nM
[2]
  IC50: 632 nM
LP-1 cells
  EC50: 27.2 µM
L-363 cells
  EC50: 2430 nM
JJN-3 cells
  EC50: 4170 nM

## [2H]c1n[nH]c([2H])c1-c1cn(C2CCN(C3CC3)CC2)c2cnc(C#CC(O)(C([2H])([2H])[2H])C([2H])([2H])[2H])cc12 [Compound 43]
[1]
  IC50: 44 nM
LP-1 cells
  EC50: 0.976 µM
L-363 cells
  EC50: 127 nM
JJN-3 cells
  EC50: 354 nM

## CC(C)(O)C#Cc1cc2c(-c3cn[nH]c3)cn(S(=O)(=O)Cc3ccccc3)c2cn1 [Compound 27]
[1]
  IC50: 290 nM

## CCn1cc(-c2c[nH]nc2NC)c2cc(C#CC(C)(C)O)ncc21 [Compound 37]
[1]
  IC50: 274 nM
LP-1 cells
  EC50: > 30 µM
L-363 cells
  EC50: 4910 nM
JJN-3 cells
  EC50: 5660 nM

## CCn1cc(-c2cn[nH]c2)c2cc(C#CC(C)(C)O)ncc21 [Compound 9]
[2]
  IC50: 89 nM
[3]
  IC50: 9 nM
LP-1 cells
  EC50: 3.06 µM
L-363 cells
  EC50: 553 nM
JJN-3 cells
  EC50: 526 nM

## [2H]c1n[nH]c([2H])c1-c1cn([C@H]2CCN(CCC(F)(F)F)C2)c2cnc(C#CC(O)(C([2H])([2H])[2H])C([2H])([2H])[2H])cc12 [Compound 42]
[1]
  IC50: 63 nM
LP-1 cells
  EC50: 2.67 µM
L-363 cells
  EC50: 1030 nM
JJN-3 cells
  EC50: 2220 nM

## CC(C)(O)C#Cc1cc2c(-c3cn[nH]c3)cn(C3CCN(CCF)CC3)c2cn1 [Compound 36]
[1]
  IC50: 63 nM
LP-1 cells
  EC50: 9.59 µM
L-363 cells
  EC50: 565 nM
JJN-3 cells
  EC50: 1620 nM

## CCn1cc(-c2c[nH]nc2Cl)c2cc(C#CC(C)(C)O)ncc21 [Compound 38]
[1]
  IC50: 13 nM
LP-1 cells
  EC50: 3.2 µM
L-363 cells
  EC50: 1320 nM
JJN-3 cells
  EC50: 1660 nM

## CC(C)(O)C#Cc1cc2c(-c3cn[nH]c3)cn(C3CCN(CC(F)(F)F)CC3)c2cn1 [Compound 35]
[1]
  IC50: 23 nM
LP-1 cells
  EC50: 2.67 µM
L-363 cells
  EC50: 439 nM
JJN-3 cells
  EC50: 820 nM
